US20080194585A1, “Fungicidal Pyrazine Derivatives” (priority 2005, published 2008)
Marks after values point to notes of the source that are not given here.

How the values were obtained:
Conditions in all cases: 100 = 100% disease control, 0 = no control
[1] = tested on: Erysiphe graminis f. sp. tritici; experiment: Test L: wheat powdery mildew, preventive spray on wheat seedlings
Septoria nodorum = experiment: Test H: wheat glum blotch, preventive spray on wheat seedlings
Method: (the causal agent of wheat glum blotch) and incubated in a saturated atmosphere at 20° C. for 48 h, and then moved to a growth chamber at 22° C. for 5 days, after which disease ratings were made.

Phytophthora infestans = experiment: whole plant or invertebrate; assay type: in vivo
Septoria tritici = experiment: Test J: wheat leaf blotch, preventive spray on wheat seedlings; assay type: in vivo
Text: A dash (-) indicates no test results.

fusarium graminearium = experiment: Test I: wheat head scab, preventive spray on wheat seedlings
Method: (the causal agent of wheat head scab) and incubated in a saturated atmosphere at 20° C. for 72 h, and then moved to a growth chamber at 22° C. for 5 days, after which disease ratings were made.

Pythium aphanidermatum = experiment: Test A: bluegrass pythium blight, preventive spray on bluegrass seedlings
Rhizoctonia oryzae = experiment: Test G: turf brown patch, preventive spray on creeping bent grass seedlings
Method: (the causal agent of turf brown patch) and incubated in a saturated atmosphere at 27° C. for 24 h, and then moved to a growth chamber at 27° C. for 5 days, after which disease ratings were made.

Plasmopara viticola = experiment: Test D: grape downy mildew, spray after inoculation of grape seedlings; assay type: in vivo
Text: Upon removal, disease ratings were made. […] A dash (-) indicates no test results.

[2] = tested on: Colletotrichum orbiculare; experiment: Test B: cucumber Colletotrichum anthracnose, preventive spray on cucumber seedlings
Botrytis cinerea = experiment: Test E: tomato botrytis, preventive spray on tomato seedlings
[3] = tested on: Puccinia recondita f. sp. tritici; experiment: Test K: wheat leaf rust, preventive spray on wheat seedlings

Row | Structure (SMILES) | Test L disease control rating ([1]; 40 ppm (marked *)) | Test H disease control rating (Septoria nodorum; 40 ppm (marked *)) | Test F disease control rating (Phytophthora infestans; 40 ppm (marked *)) | Test J disease control rating (Septoria tritici; 40 ppm (marked *)) | Test I disease control rating (fusarium graminearium; 40 ppm (marked *)) | Test A disease control rating (Pythium aphanidermatum; 40 ppm (marked *)) | Test G disease control rating (Rhizoctonia oryzae; 40 ppm (marked *)) | Test D disease control rating (Plasmopara viticola; 40 ppm (marked *)) | Test B disease control rating ([2]; 40 ppm (marked *)) | Test E disease control rating (Botrytis cinerea; 40 ppm (marked *)) | Test K disease control rating ([3]; 40 ppm (marked *)) | Test H disease control rating (Septoria nodorum; 200 ppm) | Test K disease control rating ([3]; 200 ppm) | further results
1 | COC(=O)Cn1c(-c2c(F)cccc2F)c(Cl)nc(-n2ccc(C)n2)c1=O [compound 308] | 0* % | 0* % | 0* % | 29* % | 0* % | 0* % | 0* % | 0* % | 0* % | 0* % | 9* % | – | – | –
2 | CSCC(C)n1c(-c2c(F)cccc2F)c(Cl)nc(-n2ccc(C)n2)c1=O (stereo not shown) [compound 309] | 0* % | 0* % | 0* % | 5* % | 0* % | 0* % | 0* % | 0* % | 0* % | 99* % | 0* % | – | – | –
3 | COCCn1c(-c2c(F)cccc2F)c(Cl)nc(-n2ccc(C)n2)c1=O [compound 310] | 0* % | 64* % | 0* % | 42* % | 0* % | 0* % | 0* % | 0* % | 0* % | 0* % | 74* % | – | – | –
4 | CSCCn1c(-c2c(F)cccc2F)c(Cl)nc(-n2ccc(C)n2)c1=O [compound 311] | 0* % | 0* % | 0* % | 74* % | 0* % | 0* % | 0* % | 0* % | 0* % | 94* % | 74* % | – | – | –
5 | COCC(C)n1c(-c2c(F)cccc2F)c(Cl)nc(-n2cccc2C#N)c1=O (stereo not shown) [compound 312] | – | – | – | – | – | – | – | – | – | – | – | 0% | 0% | Test L disease control rating ([1]; 200 ppm): 0%; Test F disease control rating (Phytophthora infestans; 200 ppm): 9%; Test J disease control rating (Septoria tritici; 200 ppm): 13%; Test I disease control rating (fusarium graminearium; 200 ppm): 0%; Test A disease control rating (Pythium aphanidermatum; 200 ppm): 0%; Test G disease control rating (Rhizoctonia oryzae; 200 ppm): 0%; Test D disease control rating (Plasmopara viticola; 200 ppm): 40%; Test B disease control rating ([2]; 200 ppm): 0%; Test E disease control rating (Botrytis cinerea; 200 ppm): 0%
6 | CC(C)Cn1c(-c2c(F)cccc2F)c(Cl)nc(N2CCCC2)c1=O [compound 314] | – | – | – | – | – | – | – | – | – | – | – | 0% | 0% | Test L disease control rating ([1]; 200 ppm): 0%; Test F disease control rating (Phytophthora infestans; 200 ppm): 0%; Test J disease control rating (Septoria tritici; 200 ppm): 0%; Test I disease control rating (fusarium graminearium; 200 ppm): 18%; Test A disease control rating (Pythium aphanidermatum; 200 ppm): 88%; Test G disease control rating (Rhizoctonia oryzae; 200 ppm): 0%; Test D disease control rating (Plasmopara viticola; 200 ppm): 0%; Test B disease control rating ([2]; 200 ppm): 0%; Test E disease control rating (Botrytis cinerea; 200 ppm): 0%
7 | CC(C)Cn1c(C2CC2)c(Cl)nc(-n2cccn2)c1=O [compound 315] | – | – | – | – | – | – | – | – | – | – | – | 0% | 0% | Test L disease control rating ([1]; 200 ppm): 0%; Test F disease control rating (Phytophthora infestans; 200 ppm): 0%; Test J disease control rating (Septoria tritici; 200 ppm): 7%; Test I disease control rating (fusarium graminearium; 200 ppm): 0%; Test A disease control rating (Pythium aphanidermatum; 200 ppm): 69%; Test G disease control rating (Rhizoctonia oryzae; 200 ppm): 0%; Test D disease control rating (Plasmopara viticola; 200 ppm): 0%; Test B disease control rating ([2]; 200 ppm): 0%; Test E disease control rating (Botrytis cinerea; 200 ppm): 0%
8 | CCc1c(Cl)nc(-n2cccn2)c(=O)n1CC(C)C [compound 316] | – | – | – | – | – | – | – | – | – | – | – | 0% | 0% | Test L disease control rating ([1]; 200 ppm): 0%; Test F disease control rating (Phytophthora infestans; 200 ppm): 0%; Test J disease control rating (Septoria tritici; 200 ppm): 0%; Test I disease control rating (fusarium graminearium; 200 ppm): 0%; Test A disease control rating (Pythium aphanidermatum; 200 ppm): 54%; Test G disease control rating (Rhizoctonia oryzae; 200 ppm): 0%; Test D disease control rating (Plasmopara viticola; 200 ppm): 0%; Test B disease control rating ([2]; 200 ppm): 0%; Test E disease control rating (Botrytis cinerea; 200 ppm): 0%
9 | CCCCCc1c(Cl)nc(-n2cccn2)c(=O)n1CC(C)C [compound 317] | – | – | – | – | – | – | – | – | – | – | – | 0% | 41% | Test L disease control rating ([1]; 200 ppm): 0%; Test F disease control rating (Phytophthora infestans; 200 ppm): 0%; Test J disease control rating (Septoria tritici; 200 ppm): 28%; Test I disease control rating (fusarium graminearium; 200 ppm): 0%; Test A disease control rating (Pythium aphanidermatum; 200 ppm): 0%; Test G disease control rating (Rhizoctonia oryzae; 200 ppm): 0%; Test D disease control rating (Plasmopara viticola; 200 ppm): 0%; Test B disease control rating ([2]; 200 ppm): 0%; Test E disease control rating (Botrytis cinerea; 200 ppm): 0%
10 | CC(C)Cn1c(-c2c(Cl)cc(Cl)cc2Cl)c(Cl)nc(-n2cccn2)c1=O [compound 318] | 67* % | 97* % | 0* % | 100* % | 0* % | 0* % | 78* % | 0* % | 82* % | 99* % | 97* % | – | – | –
11 | O=c1c(-n2cccn2)nc(Cl)c(-c2c(F)cc(F)cc2F)n1-c1ccccc1F [compound 320] | 96* % | 100* % | 0* % | 100* % | 0* % | 74* % | 80* % | 0* % | 88* % | 99* % | 99* % | – | – | –
12 | Cc1ccn(-c2nc(Cl)c(-c3c(F)cc(F)cc3F)n(-c3ccccc3)c2=O)n1 [compound 321] | 0* % | 100* % | 0* % | 100* % | 82* % | 0* % | 70* % | 17* % | 94* % | 99* % | 99* % | – | – | –
13 | O=c1c(-n2cccn2)nc(Cl)c(-c2ccc(F)cc2Cl)n1-c1ccccc1 [compound 322] | 0* % | 98* % | 0* % | 100* % | 0* % | 0* % | 16* % | 0* % | 63* % | 99* % | 92* % | – | – | –
14 | Cc1ccn(-c2nc(Cl)c(-c3ccc(F)cc3Cl)n(-c3ccccc3)c2=O)n1 [compound 323] | 0* % | 97* % | 0* % | 100* % | 0* % | 0* % | 16* % | 0* % | 78* % | 99* % | 96* % | – | – | –
15 | CC(C)Cn1c(-c2c(F)cccc2F)c(Cl)nc(-n2cccc2C#N)c1=O [compound 325] | 0* % | – | 0* % | 7* % | 0* % | 0* % | 0* % | 0* % | 0* % | 0* % | – | 0% | 0% | –
16 | Cc1cccc(-n2c(-c3c(F)cccc3F)c(Cl)nc(-n3cccn3)c2=O)c1 [compound 326] | 94* % | 100* % | 0* % | 97* % | 0* % | 0* % | 16* % | 0* % | 0* % | 99* % | 97* % | – | – | –
17 | Cc1cccc(-n2c(-c3c(F)cccc3F)c(Cl)nc(-n3ccc(C)n3)c2=O)c1 [compound 327] | 78* % | 98* % | 0* % | 97* % | 0* % | 93* % | 0* % | 0* % | 37* % | 99* % | 95* % | – | – | –
